Half-life and Papp A→B data for 1 molecule are collected here from ChEMBL document CHEMBL5257056, “Accelerated Discovery of Macrocyclic CDK2 Inhibitor QR-6401 by Generative Models and Structure-Based Drug Design” (ACS Med Chem Lett, 2023).

As a reminder, the half-life is the time needed for the level to fall by half in the phase considered. A word on the Papp A→B: it is the apparent permeability from the apical to the basolateral side of a cell layer. The low end stands for poor permeation, the high end for ready permeation.

A short description of data set [1]: in vitro. The following applies: human, microsomes.
A short description of data set [2]: in vitro. Particulars: dog, MDCK-MDR1.

Take `O=C1NCCCNC(=O)c2cccc(n2)Nc2cc([nH]n2)[C@H]2CC[C@H](C2)O1`: in the data set “in vitro [1]”, the half-life at 0.75 h, 1 µM was 1.07 h. Besides, the apical-to-basolateral permeability (Papp A→B) at […], 5 µM in the data set “in vitro [2]” came out at 0.9 ×10⁻⁶ cm/s.
